Measurements taken from patent US9649381B2, “Transporter protein-coupled nanodevices for targeted drug delivery” (Wayne State University, priority 2013, dated 2017).

Columns and labels:
C2Hx rats = assay: EMG recording of diaphragm recovery in C2Hx rats after injection into the paralyzed hemidiaphragm; format: in vivo, rat
Text: In one case, rats with hemisection at C2Hx, hereafter “C2Hx rats,” have undergone surgical treatment to disrupt the bulbospinal pathway from the rVRG to the PN, the primary source for descending respiratory drive. Paralysis of the ipsilateral diaphragm muscle in C2Hx confirmed by electomygram (EMG). In such rats, the latent crossed phrenic pathway remains intact, as axons decussate caudal to injury.
In one example, a nanodevice with a targeting portion of WGA-HRP and a molecule to be delivered of pro-THP, the pro-THP being bound to the connecting portion by a slow drug release linker, was administered by injection into the paralyzed hemidiaphragms of a cohort of 11 C2-hemisected rats. About 50 μl of the nanodevice, which contained about 0.275 μg of pro-THP, was injected. Five 10 μl injections were conducted at even spatial intervals to spread the conjugate throughout the hemidiaphragm. This constitutes a single round of injections and thus considered to be a one-time, single-injection type of treatment.
FIG. 3 illustrates a trial of C2Hx rats that have been treated with a WGA-HRP/gold/pro-theophylline nanodevice. In each plot, the Y-axis 301a/b/c/d represents a voltage signal and the X-axis 302/a/b/c/d represents time, increasing from left to right. Two different types of plots are shown in FIG. 3; FIG. 3A-C are EMG recordings and FIG. 3D is a phrenic nerve recording. […]

[1] = system: rat spinal cord injury model animals; assay: Chronic systemic drug administration, persistence of hemidiaphragm recovery in spinal cord injury model animals; format: in vivo; conditions: multiple systemic administrations over 3 days
Text: Chronic administrations of theophylline, however, induce plasticity in the respiratory pathways which results in recovery that persists for days. Specifically, three days of orally administered theophylline three times per day (for a total of nine doses) was sufficient to bring about and maintain respiratory recovery that persisted for about 3 days, about 7 days, about 12 days, and about 30 days after the last drug administration in separate groups of animals.
Theophylline is both an adenosine receptor antagonist and a phosphodiesterase (PDE) inhibitor. Chronic administration of rolipram (a PDE-4 specific inhibitor), pentoxifylline (a general PDE inhibitor), or DPCPX (an adenosine A1 receptor antagonist) also induce persistent functional recovery of a paralyzed hemidiaphragm in rat spinal cord injury model animals for as long as 10 days, the longest interval studied, after the animal is last exposed to the drugs. Although rolipram and pentoxifylline have been approved for clinical use, these “first generation” PDE inhibitors can induce the same side effects as theophylline, including nausea and vomiting.

[2] = system: patients with cervical spinal cord injury; conditions: cited from earlier work

For `CCCn1c(=O)c2[nH]c(C3CCCC3)nc2n(CCC)c1=O` [DPCPX, 1,3-dipropyl-8-cyclopentylxanthine], which “dosage required for recovery in a rat” value (C2Hx rats; single administration, studies like FIG. 3A-D) is on record?
The value was 0.093 microgram.

What does the source list for `Cn1c(=O)c2[nH]cnc2n(C)c1=O` [theophylline]?
recovery after multiple systemic administrations [1]: long-lasting recovery; left diaphragm EMG activity ([2]; patient with asymmetrical cervical spinal cord injury, acute and chronic theophylline): markedly increased; increase in diaphragm EMG activity, maximum ([2]; tetraplegic patient, ventilator dependent, intravenous, increasing doses over one day, therapeutic levels): 50%; amount of theophylline required to realize recovery (C2Hx rats; C2Hx rats, systemic treatment): 15 mg/kg
